Reference: patent US12042481B2, “Use of (1R,5S)-(+)-1-(naphthalen-2-yl)-3-azabicyclo[3.1.0]hexane in the treatment of conditions affected by monoamine neurotransmitters” (priority 2011, dated 2024)
“Also recorded” adds a separate entry of the source.

Assays:
[1] = molecular target: T1, recombinant human DA transporter (Homo sapiens, UniProt Q01959); experiment: Inhibition of [3H]dopamine uptake in CHO-K1 cells transfected with the DA uptake transporter; format: cell-based
T1 construct: host or cells: CHO-K1
Protocol: (§1) The ability of (1R,5S)-(+)-1-(naphthalen-2-yl)-3-azabicyclo[3.1.0]hexane for inhibiting transport of norepinephrine (NE) and/or dopamine (DA) and/or serotonin (5-HT) was evaluated using cell lines (such as the HEK 293 cell line) that stably express recombinant human NE, DA, and 5-HT transporters, respectively. Techniques for stably transfecting mammalian cell lines with neurotransmitter transporters and measuring the effects of drugs on amine uptake have been described in the literature (e.g., Eshleman A J, J Pharmacol Exp Ther 289:877-885, 1999) and are well known to those skilled in the art
(§2) Monoamine uptake was determined in MDCK, CHO-K1, and HEK-293 cell lines respectively transfected with NE, DA, and 5-HT uptake transporters by MDS Pharma Services (Taipei, Taiwan 112, R. O. C.). The cells were incubated in 5 mM Tris-HCl, and 7.5 mM HEPES buffer, pH 7.1, containing 120 mM NaCl, 5.4 mM KCl, 1.2 mM CaCl2, 1.2 mM MgSO4, 5 mM D-glucose, and 1 mM Ascorbic Acid. The cellular homogenates were incubated with radioligands and various concentrations of drugs for 10 minutes at 25° C. The [^3H]-radioligands incorporated into the cells were determined according to published methods using liquid scintillation counting (Perovic and Müller 1995; Eshleman et al., 1999). […]

[2] = system: male CD-1 (Crl.) derived mice; experiment: Mouse spontaneous locomotor activity; format: in vivo
Protocol: For the locomotor activity determination, male CD-1 (Crl.) derived mice were orally administered (1R,5S)-(+)-1-(naphthalen-2-yl)-3-azabicyclo[3.1.0]hexane as described in Example IV. Locomotor activity for mice in groups of 10 was assessed by placing mice individually into custom built chambers in a quiet isolated 22° C. room (conducted by MDS Pharma Services, Taipei, Taiwan 112, R. O. C.). At 15-minute intervals over 2 hours post-dosing, total travel distances (in cm) for individual animals were recorded using the Etho Vision Pro System (Noldus, USA).

[3] = system: male CD-1 (Crl.) derived mice; experiment: Mouse tail suspension test; format: in vivo
Protocol: The behavioral effects of (1R,5S)-(+)-1-(naphthalen-2-yl)-3-azabicyclo[3.1.0]hexane were evaluated in a model predictive of antidepressant activity, the mouse tail suspension test (Cryan and Mombereau, 2004).
For the tail test suspension test, male CD-1 (Crl.) derived mice weighing 20-26 g were provided by BioLasco Taiwan (Charles River Laboratories Technology Licensee). All animals were maintained in a controlled temperature (23° C.-24° C.) and humidity (60%-70%) environment with 12 hours light dark cycles for at least one week prior to use. For the tail suspension test, (1R,5S)-(+)-1-(naphthalen-2-yl)-3-azabicyclo[3.1.0]hexane was administered orally at dose from 10-40 mg/kg p.o. to groups of 10 CD-1 derived male mice by MDS Pharma Services, Taipei, Taiwan 112, R. O. C. (1R,5S)-(+)-1-(naphthalen-2-yl)-3-azabicyclo[3.1.0]hexane was dissolved in 2% Tween 80 and was administered at 10 ml/kg 60 minutes prior to the tail suspension test. During the test, the mice were suspended on the edge of a shelf 58 cm above a table top by adhesive tape placed approximately 1 cm from the tip of the tail. The duration of immobility was recorded for a period of 5 minutes (during 2-7 minutes of the tail suspension). The duration of the effects of (1R,5S)-(+)-1-(naphthalen-2-yl)-3-azabicyclo[3.1.0]hexane was also evaluated in the tail suspension test by varying pretreatment time.

[4] = molecular target: T2, recombinant human 5-HT transporter (Homo sapiens, UniProt P31645); experiment: Inhibition of [3H]serotonin uptake in HEK-293 cells transfected with the 5-HT uptake transporter; format: cell-based
T2 construct: host or cells: HEK-293
Protocol: as §1, §2

T2 sequence (P31645 whole entry): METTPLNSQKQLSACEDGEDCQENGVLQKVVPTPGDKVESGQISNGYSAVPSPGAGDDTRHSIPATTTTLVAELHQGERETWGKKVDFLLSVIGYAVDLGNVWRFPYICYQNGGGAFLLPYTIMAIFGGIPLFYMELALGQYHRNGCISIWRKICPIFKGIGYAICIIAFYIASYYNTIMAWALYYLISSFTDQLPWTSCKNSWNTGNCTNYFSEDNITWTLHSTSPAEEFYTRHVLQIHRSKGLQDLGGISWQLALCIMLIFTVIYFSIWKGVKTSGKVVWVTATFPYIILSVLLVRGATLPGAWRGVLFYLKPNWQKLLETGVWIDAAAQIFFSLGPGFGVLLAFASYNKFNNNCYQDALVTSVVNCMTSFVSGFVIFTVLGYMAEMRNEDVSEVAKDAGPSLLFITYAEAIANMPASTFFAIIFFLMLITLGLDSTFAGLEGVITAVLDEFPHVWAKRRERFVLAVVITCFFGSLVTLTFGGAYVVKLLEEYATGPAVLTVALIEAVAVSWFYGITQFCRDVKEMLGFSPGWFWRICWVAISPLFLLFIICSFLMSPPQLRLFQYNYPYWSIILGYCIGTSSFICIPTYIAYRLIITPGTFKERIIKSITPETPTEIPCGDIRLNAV
T1 sequence (Q01959 whole entry): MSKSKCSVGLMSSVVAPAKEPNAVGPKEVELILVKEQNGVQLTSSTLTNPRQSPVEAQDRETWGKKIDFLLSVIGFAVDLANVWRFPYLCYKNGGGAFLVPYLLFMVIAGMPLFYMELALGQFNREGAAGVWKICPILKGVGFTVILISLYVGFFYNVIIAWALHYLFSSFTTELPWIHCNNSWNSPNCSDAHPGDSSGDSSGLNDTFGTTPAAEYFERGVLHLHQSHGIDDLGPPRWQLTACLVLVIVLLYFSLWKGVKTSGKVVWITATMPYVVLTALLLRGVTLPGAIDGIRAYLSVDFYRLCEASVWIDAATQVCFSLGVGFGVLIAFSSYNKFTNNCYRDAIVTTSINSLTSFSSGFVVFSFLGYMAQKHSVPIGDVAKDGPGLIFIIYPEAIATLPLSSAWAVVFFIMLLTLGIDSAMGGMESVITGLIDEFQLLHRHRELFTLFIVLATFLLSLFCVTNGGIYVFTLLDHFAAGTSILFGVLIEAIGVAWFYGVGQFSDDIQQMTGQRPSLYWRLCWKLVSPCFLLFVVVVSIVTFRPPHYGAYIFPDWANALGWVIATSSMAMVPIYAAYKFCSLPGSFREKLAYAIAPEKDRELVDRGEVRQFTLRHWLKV

c1ccc2cc([C@]34CNC[C@H]3C4)ccc2c1 [(1R,5S)-(+)-1-(naphthalen-2-yl)-3-azabicyclo[3.1.0]hexane]
IC50 [1]: 38 nM
locomotor activity (FIG. 5) ([2]; 20, 40 mg/kg p.o., 15 minute epochs, p<0.05 versus vehicle): decreased locomotor activity at several time points
spontaneous locomotor activity ([2]; oral, distance traveled at 15-minute intervals over 2 hours): did not significantly increase; also recorded: significantly decrease locomotor activity at several time points
immobility ([3]; 20 mg/kg p.o., at 30 minutes): 84 % of control
immobility ([3]; 20 mg/kg p.o., at 60 minutes): 82 % of control
immobility ([3]; 20 mg/kg p.o., at 120 minutes): 75 % of control
immobility ([3]; 20 mg/kg p.o., at 240 minutes): 47 % of control
immobility ([3]; 40 mg/kg p.o., 60 minutes prior to test): 87 % of control
duration of effect ([3]; oral): over 4 hours
efficacy compared with desipramine (30 mg/kg p.o.) ([3]; oral): equivalent to the tricyclic antidepressant desipramine
minimal effective dose for reducing time immobilized ([3]; oral, 60 minutes prior to test): 20 mg/kg
IC50 [4]: 83 nM
